Measurements published in patent publication US20110251066A1, “ISOXAZOLE DERIVATIVES FOR USE AS PLANT GROWTH REGULATORS” (SYNGENTA CROP PROTECTION LLC, priority 2008, published 2011).
Blank lines part the entries; values can stand above or below the compound they belong to.

Columns and labels:
[1] = PGR activity of separated enantiomers (test not specified); conditions: (R)- versus (S)-enantiomer of compound 146
[2] = tested on: grape seedlings cultivar (cv.) Gutedel; assay: Plant growth regulation effects on grape seedlings; format: in vivo; conditions: 200 ppm, spray chamber, 8 days at 22° C. and 80% r.h.
Protocol: Five weeks old grape seedlings cultivar (cv.) Gutedel were treated with the formulated test compound in a spray chamber. After an incubation period of 8 days at 22° C. and 80% relative humidity (r.h.) in a greenhouse, the plant growth regulating effects were assessed.

[3] = tested on: Botrytis cinerea; assay: Fungal growth inhibition in nutrient broth, microtiter plate, photometric; format: cell-based; conditions: 200 ppm, 24° C., 72 hours
Protocol: (§1) Botrytis cinerea (Gray mould): Conidia of the fungus from cryogenic storage were directly mixed into nutrient broth (PDB potato dextrose broth). After placing a (DMSO) solution of the test compounds into a microtiter plate (96-well format) the nutrient broth containing the fungal spores was added. The test plates were incubated at 24° C. and the inhibition of growth was determined photometrically after 72 hours. Compound (S)-(146) gave at least 80% control of Botrytis cinerea at 200 ppm.

[4] = tested on: Fusarium culmorum; assay: as above; format: cell-based; conditions: 200 ppm, 24° C., 48 hours
Protocol: as §1, with “Fusarium culmorum (root rot):” for “Botrytis cinerea (Gray mould):”, “48” for “72”, “Fusarium culmorum” for “Botrytis cinerea”

[5] = tested on: Monographella nivalis; assay: as above; format: cell-based; conditions: 200 ppm, 24° C., 72 hours, 620 nm
Protocol: as §1, with “Monographella nivalis (syn. Microdochium nivale, Fusarium nivale), snow mould, foot rot of cereals:” for “Botrytis cinerea (Gray mould):”, “hours at 620 nm.” for “hours.”, “Monographella nivalis” for “Botrytis cinerea”

[6] = tested on: Septoria tritici; assay: as above; format: cell-based; conditions: 200 ppm, 24° C., 72 hours
Protocol: as §1, with “Septoria tritici (leaf blotch):” for “Botrytis cinerea (Gray mould):”, “Septoria tritici” for “Botrytis cinerea”

[7] = tested on: Rhizoctonia solani; assay: as above; format: cell-based; conditions: 200 ppm, 24° C., 48 h
Protocol: as §1, with “Rhizoctonia solani (foot rot, damping-off): Mycelial fragments” for “Botrytis cinerea (Gray mould): Conidia”, “fungus, prepared” for “fungus”, “a fresh liquid culture,” for “cryogenic storage”, “mycelium” for “spores”, “48 h.” for “72 hours.”, “Rhizoctonia solani” for “Botrytis cinerea”

[8] = tested on: Mycosphaerella arachidis; assay: as above; format: cell-based, Mycosphaerella arachidis (syn. Cercospora arachidicola); conditions: 200 ppm, 24° C., 72 hours, 620 nm
Protocol: as §1, with “Mycosphaerella arachidis (syn. Cercospora arachidicola), Brown leaf spot of groundnut (peanut):” for “Botrytis cinerea (Gray mould):”, “hours at 620 nm.” for “hours.”, “Mycosphaerella arachidis” for “Botrytis cinerea”

[9] = tested on: wheat plants cultivar (cv.). Riband; assay: Plant growth regulation effects on wheat plants; format: in vivo; conditions: 200 ppm, spray chamber, 8 days at 22° C. and 80% r.h.
Protocol: Two weeks old wheat plants cultivar (cv.). Riband were treated with the formulated test compound in a spray chamber. After an incubation period of 8 days at 22° C. and 80% relative humidity (r.h.) in a greenhouse, the plant growth regulating effects were assessed.

[10] = tested on: winter wheat; assay: Plant growth effects on cereals: spray at beginning of stem elongation, visual growth reduction; format: in vivo; conditions: 225 g a.i./ha spray, 28 days after spray, visually evaluated versus untreated control
Excerpt: (§2) Plants of winter wheat and summer wheat were sprayed at the beginning of stem elongation, three weeks after sowing. Formulated test compounds 144, 145 and 146 were sprayed at 225 g a.i. (active ingredient)/ha, each, top over leaf with a boom sprayer on the plants. After the spray the plants were transferred to a greenhouse and 28 days after the spray the plant growth reduction was visually evaluated versus an untreated control.

[11] = tested on: summer wheat; assay: as above; format: in vivo; conditions: 225 g a.i./ha spray, 28 days after spray, visually evaluated versus untreated control
Excerpt: as §2

Structure (SMILES): O[C@H](c1cccnc1)c1c(-c2ccc(Cl)cc2F)noc1-c1ccc(F)cc1F (single isomer, unassigned) [Compound 153]
- PGR activity, enantiomer comparison [1]: majority of PGR activity
- plant growth regulating effect (plant height) [2]: plant height decreased

Structure (SMILES): O[C@@H](c1cccnc1)c1c(-c2ccc(Cl)cc2F)noc1-c1ccc(F)cc1F (single isomer, unassigned) [Compound (S)-(146)]
- control of Botrytis cinerea [3]: at least 80%
- control of Fusarium culmorum [4]: at least 80%
- control of Monographella nivalis [5]: at least 80%
- control of Septoria tritici [6]: at least 80%
- control of Rhizoctonia solani [7]: at least 80%
- control of Mycosphaerella arachidis [8]: at least 80%

Structure (SMILES): OC(c1cncnc1)c1c(-c2ccc(Cl)cc2F)noc1-c1ccc(F)cc1F (stereo not drawn) [Compound 144]
- plant growth regulating effect (plant height) [9]: plant height decreased
- plant growth regulating effect (plant height) [2]: plant height decreased
- Winter Wheat % reduction (plant growth reduction) [10]: 7.5%
- Summer Wheat % reduction (plant growth reduction) [11]: 10%

Structure (SMILES): OC(c1cncnc1)c1c(-c2ccc(Cl)cc2)noc1-c1ccc(F)cc1F (stereo not drawn) [Compound 145]
- plant growth regulating effect (plant height) [2]: plant height decreased
- Winter Wheat % reduction (plant growth reduction) [10]: 5%
- Summer Wheat % reduction (plant growth reduction) [11]: 17.5%

- melting point: 138 to 140 °C
Structure (SMILES): OC(c1cccnc1)c1c(-c2ccc(Cl)cc2F)noc1-c1ccc(F)cc1F (stereo not drawn) [Compound 146, 3-(2-Fluoro-4-Chlorophenyl)-5-(2,4-difluorophenyl)-4-[(3-pyridyl)hydroxymethyl]-isoxazole]
- Winter Wheat % reduction (plant growth reduction) [10]: 10%
- Summer Wheat % reduction (plant growth reduction) [11]: 10%

Structure (SMILES): OC(c1cncnc1)c1c(-c2ccc(Cl)cc2Cl)noc1-c1ccccc1Cl (stereo not drawn) [Compound 147, 3-(2,4-Chlorophenyl)-5-(2-Chlorophenyl)-4-[(3-pyrimidyl)hydroxymethyl]-isoxazole]
- plant growth regulating effect (plant height) [2]: plant height decreased

Structure (SMILES): OC(c1cncnc1)c1c(-c2ccc(Cl)cc2F)noc1-c1ccccc1Cl (stereo not drawn) [Compound 148, 3-(2-Fluoro-4-Chlorophenyl)-5-(2-Chlorophenyl)-4-[(3-pyrimidyl)hydroxymethyl]-isoxazole]
- plant growth regulating effect (plant height) [2]: plant height decreased

Structure (SMILES): COc1ncccc1-c1onc(-c2ccc(Cl)cc2)c1C(O)c1cncnc1 (stereo not drawn) [Compound 149, 3-(4-Chlorophenyl)-5-(2-Methoxypyridine)-4-[(3-pyrimidyl)hydroxymethyl]-isoxazole]
- plant growth regulating effect (plant height) [2]: plant height decreased

Structure (SMILES): OC(c1cncnc1)c1c(-c2ccc(Cl)cc2)noc1-c1ccc(F)cc1 (stereo not drawn) [Compound 150, 3-(4-Chlorophenyl)-5-(4-Fluorophenyl)-4-[(3-pyrimidyl)hydroxymethyl]-isoxazole]
- plant growth regulating effect (plant height) [2]: plant height decreased

Structure (SMILES): OC(c1cncnc1)c1c(-c2ccc(Cl)cc2)noc1-c1ccc(F)cc1F (stereo not drawn) [Compound 151, 3-(4-Chlorophenyl)-5-(2,4-Fluorophenyl)-4-[(3-pyrimidyl)hydroxymethyl]-isoxazole]
- plant growth regulating effect (plant height) [2]: plant height decreased

Structure (SMILES): OC(c1cccnc1)c1c(-c2ccc(F)cc2F)noc1-c1ccc(F)cc1Cl (stereo not drawn) [Compound 152, 3-(2,4-Diluoro)-5-(2-Chloro-4-Fluorophenyl)-4-[(3-pyridyl)hydroxymethyl]-isoxazole]
- plant growth regulating effect (plant height) [2]: plant height decreased
